From EP0165696A2, “Improved transdermal dosage form” (priority 1984, dated 1985)
Values after ≈ are worked out from the molar mass of the structure shown.

Columns and labels:
[1] = Equilibrium solubility of active ingredients in solvents; type: physicochemical; settings: organic solvent or mixture, 34 °C
Experimental: An exact amount of saturated solution is withdrawn into a volumetric flask while maintaining temperature. The saturated solution is diluted in suitable solvent and the content of active ingredient measured by high pressure liquid chromatography or other suitable analytical method.

[2] = In vitro penetration of drug across cadaver skin, modified Franz diffusion cell; type: in vitro ADME, human
Experimental: The rate of penetration and lag time are determined by studying in vitro the penetration of the drug across cadaver skin, hairless mouse skin or other suitable membrane.
A measured portion of each of the formulations 1A-E was applied to the surface of the cadaver skin. The appearance of drug on the dermal side was monitored quantitatively over six days.
Using formulation 2B, four skin samples from the same person were used to determine the average flux. Using formulation 2C, skin samples from four different people were used to determine the average flux.
All formulations were gelled using 6.5 percent by weight of sodium stearate.
A measured portion of each formulation,8A & B, was applied to the surface of the cadaver skin. The appearance of drug on the dermal side was monitored quantitatively over six days.

Compound: N=C(N)N/N=C/c1c(Cl)cccc1Cl [Guanabenz]
- solubility thermodynamic ([1]; 35/65 propylene glycol/glycerine, 35/65PG/Gly): 21.2 mg/mL (≈ 91.7 mM)
- solubility thermodynamic ([1]; 50/50 propylene glycol/glycerine, 50/50PG/Gly): 29.4 mg/mL (≈ 127 mM)
- solubility thermodynamic ([1]; Glycerine): 7.97 mg/mL (≈ 34.5 mM)
- solubility thermodynamic ([1]; Propylene Glycol): 47 mg/mL (≈ 203 mM)

Compound: C#C[C@]1(O)CC[C@H]2[C@@H]3CCC4=CC(=O)CC[C@@H]4[C@H]3CC[C@@]21CC [Levo-norgestrel]
- rate of penetration enhanced ([2]; levonorgestrel, by 10 weight percent of propylene glycol and glycerine combination): 2.7 times

Compound: C[C@]12CC[C@@H]3c4ccc(O)cc4CC[C@H]3[C@@H]1CC[C@@H]2O [17-beta-estradiol]
- increase in rate of penetration ([2]; mixed solvent system compared to the pure solvents alone, cadaver skin): 3 to 4 times
